In patent publication US9416141B2 (University of Washington through its Center for …, priority 2012, dated 2016) one finds Emax and EC50 data, which are given here for 22 compounds.

Structures can show the parent of a compound that is named as a salt. Where two headings read alike, the source gives them in different places.

The test system of this assay is hair cells. Put plainly: Hair cell toxicity assay in zebrafish (neomycin-induced hair cell death, DASPEI staining of neuromasts). In kind it is in vivo. The settings on record: for Emax at 25 µM: maximum observed @ 25 μM test compound; for EC50: zebrafish larvae 5-7 dpf, 1 h pre-treatment, then 200 micromolar neomycin + test compound 30 min, read-out: HC50 (concentration that would produce 50% hair cell survival); for Emax at 2.8 µM: maximum observed @ 2.8 μM test compound; for Emax at 8.3 µM: maximum observed @ 8.3 μM test compound. Here is the method: Zebrafish are bred and newly fertilized embryos are collected the week prior and raised at 28.5° C. in petri dishes containing embryo medium. Newly hatched free-swimming larvae are fed paramecium and dry fish food at 4 days post fertilization (dpf) with lights on. For treatment, fish 5-7 dpf are transferred to cell culture baskets and place within a well of a 6-well plate containing 7 milliliters of 1× embryo medium. Typically, tests are done with ten fish per basket but work well with up to 50 fish. All treatment and wash volumes are 7 milliliters. • 1. Fish are pre-treated with test compound for 1 hour. […] Treat with 200 micromolar neomycin (neomycin sulfate, Sigma, St. Louis, Mo., catalog #N1142)+test compound for 30 minutes. • 3. Rinse fish briefly 4 times in embryo medium and add 700 μl of 0.05% DASPEI (2-{4-(dimethylamino)styryl}-N-ethylpyridinium iodide, Molecular Probes, Eugene, Oreg.) and allowed to stain for 15 minutes. • 4. Rinse twice in embryo medium and add 350 μl MS222 (0.55 ug/ml final concentration, 3-aminobenzoic acid ethyl ester, methansulfoneate salt, Sigma, St. Louis, Mo.) to anesthetize. • 5. View with epifluorescence dissecting microscope equipped with a DAPSEI filter set (excitation […], Chroma Technologies, Brattleboro, Vt.). For assessment of initial dose response curves, fish are transferred to wide depression slide with wide-bore pipette. The DASPEI staining of ten neuromasts (SO1, SO2, IO1, IO2, IO3, IO4, M2, MI1, MI2 and O2) on one side of an animal are evaluated. Each neuromast is scored for presence of DASPEI staining (score=2), reduced DASPEI staining (score=1) or absence of DASPEI staining (score=0). Total scores for an animal are tabulated, to give a composite score that can range from 0 to 20. Average scores and standard deviations are calculated for animals in each treatment group. Scores are normalized to control group (vehicle only, no drug, no neomycin) and expressed as % hair cell survival. HCmax is the maximum protection (hair cell survival) observed. • 6. If at least 50% hair cells survive, the HC50 (concentration that would produce 50% hair cell survival) is calculated as a linear extrapolation from the nearest concentrations of protective drug that produce hair cell survival below and above 50%. If less than 50% hair cells survive, the HC50 is not determined. 1× embryo media (standard lab EM): • 1 mM MgSO4, • 0.15 mM KH2PO4, • 0.05 mM Na2HPO4, • 1 mM CaCl2, • 0.5 mM KCl • 15 mM NaCl • 0.7 mM NaHCO3

[1] abbreviates: Danio rerio, 200 micromolar neomycin, read-out: Max HC Protection (HCmax, % hair cell survival).

Regarding `CC[N+]1(C)C2CCC1c1sc(NC(=O)Nc3ccc(Cl)cc3)c(C(N)=O)c1C2` (racemic) [Example 187, (+/−)-3-Carbamoyl-2-[3-(4-chlorophenyl)ureido]-9-ethyl-9-methyl-5,6,7,8-tetrahydro-4H-thienocyclohepten-5,8-iminium chloride], the Emax at 25 µM under setting [1] amounted to 72%. Also, the EC50 (Danio rerio) is 1000 to 10000 nM.

For the compound `C[N+]1(C)C2CCC1c1sc(NC(=O)Nc3ccc(Cl)cc3)c(C(N)=O)c1C2` (racemic) [Example 188, (+/−)-3-Carbamoyl-2-[3-(4-chlorophenyl)ureido]-9,9-dimethyl-5,6,7,8-tetrahydro-4H-thienocyclohepten-5,8-iminium iodide], under setting [1], the Emax at 25 µM came to 59%. Besides, the EC50 (Danio rerio) fell in the range of 1000 to 10000 nM.

Take `C[N+]1(CC2CCC2)C2CCC1c1sc(NC(=O)Nc3ccc(Cl)cc3)c(C(N)=O)c1C2` (racemic) [Example 189, (+/−)-3-Carbamoyl-2-[3-(4-chlorophenyl)ureido]-9-(cyclobutylmethyl)-9-methyl-5,6,7,8-tetrahydro-4H-thienocyclohepten-5,8-iminium trifluoroacetate]: the Emax at 25 µM under setting [1] came to 96%. The EC50 (Danio rerio) was in the range of 1000 to 10000 nM.

On to `CC(C1CCC1)[N+]1(C)CCc2c(sc(NC(=O)Nc3ccc(Cl)cc3)c2C(N)=O)C1` (racemic) [Example 203, (+/−)-3-Carbamoyl-2-[3-(4-chlorophenyl)ureido]-6-(1-cyclobutylethyl)-6-methyl-4,5,6,7-tetrahydrothieno[2,3-c]pyridin-6-ium chloride], for which, under setting [1], the Emax at 2.8 µM worked out at 75%. Besides, where the note is “Danio rerio”, the EC50 was < 1000 nM.

As for `CC(C)C(C)[N+]1(C)CCc2c(sc(NC(=O)Nc3ccc(Cl)cc3)c2C(N)=O)C1` (racemic) [Example 204, (+/−)-3-Carbamoyl-2-[3-(4-chlorophenyl)ureido]-6-methyl-6-(3-methylbutan-2-yl)-4,5,6,7-tetrahydrothieno[2,3-c]pyridin-6-ium chloride], the Emax at 8.3 µM under setting [1] is 77%.

For `CON=C1CCc2c(sc(NC(=O)Nc3ccc(Cl)cc3)c2C(N)=O)C1` (single isomer, unassigned) [Example 121, 2-[3-(4-chlorophenyl)ureido]-6-(methoxyimino)-4,5,6,7-tetrahydrobenzo[b]thiophene-3-carboxamide], for the setting “Danio rerio, maximum observed @ 03 μM test compound, 200 micromolar neomycin, read-out: Max HC Protection (HCmax, % hair cell survival)”, the Emax at 3 µM was 6%.

As for `CN1C2CCC1c1sc(NC(=O)Nc3ccc(Cl)cc3)c(C(N)=O)c1C2` (single isomer, unassigned; (+)) [Example 128, (+)-2-[3-(4-Chlorophenyl)ureido]-9-methyl-5,6,7,8-tetrahydro-4H-5,8-epiminocyclohepta[b]thiophene-3-carboxamide hydrochloride], where the note is “hydrochloride”, the EC50 is < 1000 nM.

As for `NC(=O)c1c(NC(=O)Nc2ccc(Cl)cc2)sc2c1CC1CCC2N1` (single isomer, unassigned; (+)) [Example 130, (+)-2-[3-(4-Chlorophenyl)ureido]-5,6,7,8-tetrahydro-4H-5,8-epiminocyclohepta[b]thiophene-3-carboxamide hydrochloride], the Emax at 2.8 µM under setting [1] was 40%.

With `CN1C2CCC1c1sc(NC(=O)Nc3ccc(Cl)cc3)c(C(N)=O)c1C2` (single isomer, unassigned; (-)) [Example 127, (−)-2-[3-(4-chlorophenyl)ureido]-9-methyl-5,6,7,8-tetrahydro-4H-5,8-epiminocyclohepta[b]thiophene-3-carboxamide hydrochloride], for the setting “Danio rerio”, the EC50 fell in the range of 1000 to 10000 nM.

For `NC(=O)c1c(NC(=O)Nc2ccc(Cl)cc2)sc2c1CC1CCC2N1` (single isomer, unassigned; (-)) [Example 129, (−)-2-[3-(4-Chlorophenyl)ureido]-5,6,7,8-tetrahydro-4H-5,8-epiminocyclohepta[b]thiophene-3-carboxamide hydrochloride], the Emax at 2.8 µM under setting [1] was 81%. Further, the EC50 (Danio rerio) was < 1000 nM.

With `NC(=O)c1c(NC(=O)Nc2ccc(Cl)cc2)sc2c1CCN(CC1CC1)C2` [Example 1, 2-[3-(4-chlorophenyl)ureido]-6-(cyclopropylmethyl)-4,5,6,7-tetrahydrothieno[2,3-c]pyridine-3-carboxamide hydrochloride], the Emax at 25 µM under setting [1] amounted to 92%. Also, the EC50 (Danio rerio) lay in the range of 1000 to 10000 nM.

As to `CC(C)N1CCc2c(sc(NC(=O)Nc3ccc(Cl)cc3)c2C(N)=O)C1` [Example 2, 2-[3-(4-Chlorophenyl)ureido]-6-isopropyl-4,5,6,7-tetrahydrothieno[2,3-c]pyridine-3-carboxamide hydrochloride], the Emax at 25 µM under setting [1] worked out at 84%. The EC50 (Danio rerio) was 1000 to 10000 nM.

Turning to `COCCCN1CCc2c(sc(NC(=O)Nc3ccc(Cl)cc3)c2C(N)=O)C1` [Example 3, 2-[3-(4-Chlorophenyl)ureido]-6-(3-methoxypropyl)-4,5,6,7-tetrahydrothieno[2,3-c]pyridine-3-carboxamide hydrochloride], under setting [1], the Emax at 25 µM stood at 76%. Where the note is “Danio rerio”, the EC50 is 1000 to 10000 nM.

As for `CC(C)(C)OC(=O)N1CCC(N2CCc3c(sc(NC(=O)Nc4ccc(Cl)cc4)c3C(N)=O)C2)C1` (stereo not shown) [Example 4, tert-Butyl 3-{3-carbamoyl-2-[3-(4-chlorophenyl)ureido]-4,5-dihydrothieno[2,3-c]pyridin-6(7H)-yl}pyrrolidine-1-carboxylate], the Emax at 8.3 µM under setting [1] worked out at 56%. Besides, the EC50 (Danio rerio) is 1000 to 10000 nM.

For the compound `NC(=O)c1c(NC(=O)Nc2ccc(Cl)cc2)sc2c1CCN(C1CCOCC1)C2` [Example 5, 2-[3-(4-Chlorophenyl)ureido]-6-(tetrahydro-2H-pyran-4-yl)-4,5,6,7-tetrahydrothieno[2,3-c]pyridine-3-carboxamide hydrochloride], the Emax at 8.3 µM under setting [1] was 89%. The EC50 (Danio rerio) lay in the range of 1000 to 10000 nM.

Consider `NC(=O)c1c(NC(=O)Nc2ccc(Cl)cc2)sc2c1CCN(C1COC1)C2` [Example 6, 2-[3-(4-Chlorophenyl)ureido]-6-(oxetan-3-yl)-4,5,6,7-tetrahydrothieno[2,3-c]pyridine-3-carboxamide hydrochloride], for which the Emax at 25 µM under setting [1] was 72%. The EC50 (Danio rerio) was in the range of 1000 to 10000 nM.

Regarding `CN1CCC(N2CCc3c(sc(NC(=O)Nc4ccc(Cl)cc4)c3C(N)=O)C2)CC1` [Example 8, 2-[3-(4-Chlorophenyl)ureido]-6-(1-methylpiperidin-4-yl)-4,5,6,7-tetrahydrothieno[2,3-c]pyridine-3-carboxamide dihydrochloride], the Emax at 25 µM under setting [1] was found to be 84%. Further, the EC50 (Danio rerio) was > 10000 nM.

For `CC(C)(C)OC(=O)NCCN1CCc2c(sc(NC(=O)Nc3ccc(Cl)cc3)c2C(N)=O)C1` [Example 10, tert-Butyl 2-{3-carbamoyl-2-[3-(4-chlorophenyl)ureido]-4,5-dihydrothieno[2,3-c]pyridin-6(7H)-yl}ethylcarbamate], the Emax at 8.3 µM under setting [1] worked out at 13%.

As to `NCCN1CCc2c(sc(NC(=O)Nc3ccc(Cl)cc3)c2C(N)=O)C1` [Example 11, 6-(2-Aminoethyl)-2-[3-(4-chlorophenyl)ureido]-4,5,6,7-tetrahydrothieno[2,3-c]pyridine-3-carboxamide dihydrochloride], the Emax at 25 µM under setting [1] came out at 68%. Under “Danio rerio”, the EC50 lay within 1000 to 10000 nM.

For the compound `NC(=O)c1c(NC(=O)Nc2ccc(Cl)cc2)sc2c1CCN(CC1CCC1)C2` [Example 12, 2-[3-(4-Chlorophenyl)ureido]-6-(cyclobutylmethyl)-4,5,6,7-tetrahydrothieno[2,3-c]pyridine-3-carboxamide hydrochloride], the Emax at 8.3 µM under setting [1] stood at 73%. Also, the EC50 (Danio rerio) was 1000 to 10000 nM.

For `NC(=O)c1c(NC(=O)Nc2ccc(Cl)cc2)sc2c1CCN(CCCC(=O)O)C2` [Example 13, 4-{3-Carbamoyl-2-[3-(4-chlorophenyl)ureido]-4,5-dihydrothieno[2,3-c]pyridin-6(7H)-yl}butanoic acid hydrochloride], under setting [1], the Emax at 8.3 µM was found to be 17%.

With `CC(C)(C)OC(=O)CCCN1CCc2c(sc(NC(=O)Nc3ccc(Cl)cc3)c2C(N)=O)C1` [Example 14, tert-Butyl 4-{3-carbamoyl-2-[3-(4-chlorophenyl)ureido]-4,5-dihydrothieno[2,3-c]pyridin-6(7H)-yl}butanoate], the Emax at 8.3 µM under setting [1] was 83%. For the same compound, for the setting “Danio rerio”, the EC50 was < 1000 nM.
